Literature values, collected in patent publication US6872696B2, “Particle with substituted polyvinyl alcohol coating” (Genencor International, Inc., priority 2000, dated 2005).

Conditions: neutral unreacted compound in water, 25 degrees C
For `OCCS` [2-mercaptoethanol], the “Solubility g/100 ml H2O” value is given as “infinite”. For `CCS` [ethanethiol], the “Solubility g/100 ml H2O” value is listed as 0.67 g/100 ml H2O. In the case of `O=C(O)/C=C\C(=O)O` [maleic], the “Solubility g/100 ml H2O” value is given as “infinite”.
